Measurements taken from article PMC7617978, “Anti-trypanosomal quinazolines targeting lysyl-tRNA synthetases show partial efficacy in a mouse model of acute Chagas disease” (Science translational medicine, 2025).
“And” between values parts separate entries of the source, which are not always exact repeats. Equal values may be shown once. Read-outs that look alike come from different tables or passages of the source.

Experiments:
[1] = system: L. donovani (LdBOB) promastigote; experiment: Drug sensitivity assay, L. donovani promastigotes; type: cell-based; details: promastigote; for EC50: read-out: EC50
[2] = system: T. cruzi (Sylvio X10/7A1 strain) epimastigote; experiment: microbe, parasite or virus in culture; type: cell-based; details: epimastigote; for EC50: read-out: EC50
T. b. brucei BSF = experiment: Drug sensitivity assay, T. b. brucei bloodstream forms; type: cell-based; details: BSF; for EC50: read-out: EC50
[3] = system: T. cruzi CL Brener strain; experiment: Bioluminescent mouse model of acute T. cruzi infection; type: in vivo, BALB/c mice; details: 100 mg/kg QD oral, 5 days, in words
Procedure: Female BALB/c mice (aged 6-7 weeks), purchased from Charles River (UK), were maintained under specific pathogen-free conditions in individually ventilated cages, with a 12 h light/dark cycle. They had access to food and water ad libitum. Mice were infected by intraperitoneal injection (i.p) of 1x10^3 bloodstream trypomastigotes derived from CB17 SCID mouse blood.
Compounds were prepared in 5% (v/v) dimethyl sulfoxide /95% HPMC suspension vehicle (0.5% (w/v) hydroxypropyl methylcellulose, 0.5% (v/v) benzyl alcohol, 0.4% (v/v) Tween 80 in Milli-Q water). Mice were treated as outlined in Fig. 5, with compounds administered by oral gavage. At different days after infection, mice were injected with d-luciferin (150 mg/kg) i.p., anaesthetized using 2.5% (v/v) gaseous isoflurane and imaged using an IVIS Spectrum (Revvity, Hopkinton, MA, USA) 5-10 min later. To estimate parasite burden, mice ventral and dorsal regions of interest were drawn using Living Image 4.7.3 to quantify bioluminescence expressed as total flux (photons/second; p/s). Regions of interest data from infected and not-infected mice were used as controls. Exposure times varied between 30 sec and 5 min, depending on the signal intensity.

[4] = molecular target: Trypanosoma cruzi lysyl-tRNA synthetase 1 (TcKRS1), recombinant, residues 54-580 (Trypanosoma cruzi); experiment: SEC; size exclusion chromatography as the last step of purification of recombinant TcKRS1 (tag cleaved); running buffer not stated

For `O=C(NCC1(O)CCC(F)(F)CC1)c1cc(=O)c2cc(F)ccc2o1` [DDD01510706, reference compound], the “Fold-shift (relative to WT)” value ([1]; KRS1 OE) was 11 fold, the EC50 ([1]; KRS1 OE) was 8 ± 0.5 µM and the “Fold-shift (relative to WT)” value ([1]; KRS1 S324L) was 12 fold. For the same compound, the EC50 ([1]; WT) was 0.7 ± 0.01 µM, the “Fold-shift (relative to WT)” value ([2]; KRS1 OE) was 9 fold and the EC50 ([2]; KRS1 OE) was 13 ± 0.4 µM. The “Fold-shift (relative to WT)” value ([2]; KRS1 S319L) was 25 fold, the EC50 ([2]; KRS1 S319L) was 36 ± 4 µM and the EC50 ([2]; WT) was 1.4 ± 0.04 µM. For the same compound, the “Fold-shift (relative to WT)” value (T. b. brucei BSF; KRS1 OE) was 5 fold and ~ 5 fold, the EC50 (T. b. brucei BSF; KRS1 OE) was 3 ± 0.1 µM and the EC50 (T. b. brucei BSF; KRS1 S323L) was 33 ± 1 µM. The “Fold-shift (relative to WT)” value (T. b. brucei BSF; KRS1 serine-to-leucine mutant (S323L; printed S319L in Table S1)) was 53 fold and the EC50 (T. b. brucei BSF; WT) was 0.6 ± 0.01 µM.

In the case of `O=C(Cn1ccnc1[N+](=O)[O-])NCc1ccccc1` [benznidazole, reference compound], the “parasite burden after treatment” value [3] is reported as “reduced close to the limit of detection”.

In the case of “Trypanosoma cruzi lysyl-tRNA synthetase 1 (TcKRS1), recombinant, residues 54-580 (enzyme)”, the stoichiometry N [4] is reported as 2.
